Series [1] concerns AT2 receptor. Nature of the series: Neurite outgrowth assay with NG108-15 cells (AT2 receptor function assay). To be noted: for Function (AT2 receptor agonist / antagonist): 3-day treatment, 10 or 100 nM, with or without PD-123,319 (10 uM) or Ang II; for evidence of cell death: dilution series 1 pM to 1 uM, seen only at the highest concentration. The protocol:
The ratio of cell neurite outgrowth was used to evaluate, and the details are shown in the Supplementary Material.
NG108-15 cells (China Center for Type Culture Collection CCTCC) were used to study the in vitro morphological effects. In their undifferentiated state, neuroblastoma × glioma hybrid NG108-15 cells havea rounded shape and divide actively. The cells were cultured from passage 18–25 in Dulbecco’s modified Eagle’s medium (DMEM, Gibco BRL, Thermo Fisher Technology (China) Co., Ltd, China) with 10% fetal bovine serum (FBS, Gibco), HAT supplement and 50 mg L^−1 gentamycin at 37°C in 75 cm^2 Nunclon Delta flasks in a humidified atmosphere of 95% air and 5% CO2, as previously described ([Buisson et al., 1992]). Subcultures were performed at subconfluency. Under these conditions, cells express mainly the AT2 receptor subtype ([Whitebread et al., 1991]). Cells were treated during 3 days, once a day (first treatment 24 h after plating), and micrographs were taken on the fourth day. The details of experimental grouping and administration method are shown in the Supplementary Material. […]
4. NG108-15 cell experiment steps […]
peptidic AT2 receptor agonist CGP-42112A induces neurite outgrowth. The […]
plated as described in the Experimental Section, and adequate test concentrations for […]
each compound were determined by testing a dilution series of each compound […]
ranging from 1 pM to 1 uM.
The chemicals used in the present study were obtained from the following sources: Dulbecco’s modified Eagle’s medium (DMEM), heat-inactivated fetal bovine serum (FBS), HAT supplement (hypoxanthine, aminopterin, thymidine), gentamycin from Gibco BRL (Burlington, Ontario, Canada), and Ang II from MedChemExpress

A further series has as its target T1, AT1 receptor (Rattus norvegicus, UniProt P25095).
T1 construct: Rat liver membranes were prepared according to the method of Dudley et al; from tissue; host or cells: rat liver membranes
Nature of the series: Rat liver membrane AT1 receptor binding assay ([125I]-Ang II displacement). To be noted: displacement of [125I]-Ang II, rat liver membranes; means ± SE, triplicate; read-out: Ki (nM) AT1R. The protocol: The target compounds were evaluated for AT1 receptor binding affinity by displacement of [^125I]-Ang II from the AT1 receptor in rat liver membranes. The radio-iodinated AT2 receptor selective ligand [^125I]-CGP42112 was used to study AT2 receptor binding affinity in HEK-293 cells (HEK293-hAT2R) ([Dudley et al., 1990]; [Whitebread et al., 1991]). All of above methods were widely accepted and used to evaluate the binding activity of AT1 and AT2 receptors.
Rat liver membranes were prepared according to the method of Dudley et al ([Dudley et al., 1990]). After HEK-293 cells were transfected with the AT2 receptor, a lysis buffer was used to separate the cell membrane of HEK-293 cells ([Grieger et al., 2016]), using 27-G Resuspend. The lysis solution was mixed and centrifuged at 12,000 g for 10 min at 4°C. Details are shown in the Supplementary Material.
3. Radioligand binding assay steps
3.1 Rat Liver Membrane AT1 Receptor Binding Assay.
Rat liver membranes were prepared according to the method of Dudley et al[1].
Binding of [125I]-Ang II to membranes was conducted in a final volume of 0.5 mL containing 50 mM Tris-HCl (pH 7.4), 100 mM NaCl, 10 mM MgCl2, 1 mM EDTA, 0.025% bacitracin, 0.2% BSA (bovine serum albumin), liver homogenate corresponding to 5 mg of the original tissue weight, [125I]-Ang II (80000-85 000 cpm, 0.03 nM), and variable concentrations of test substance. Samples were incubated at 25 ℃ for 2 h, and binding was terminated by filtration through Whatman GF/B glass-fiber filter sheets, which had been presoaked overnight with 0.3 % polyethylamine, using a Brandel cell harvester. The filterswere washed with 3×3 mL of Tris-HCl (pH 7.4) and transferred to tubes. The radioactivity was measured in a γ-counter. The characteristics of the Ang II binding AT1receptor was determined by using six different concentrations (0.03-5 nmol/L) of the labeled [125I]-Ang II.
Nonspecific binding was determined in the presence of 1 µM Ang II.The specific binding was determined by subtracting the nonspecific binding from the total bound [125I]-Ang II.The apparent dissociation constant Ki values were calculated from IC50 values using the Cheng-Prusoff equation. […]
(§1) one-site fit.All determinations were performed in triplicate. […]
(In general: Displacement assays read how much labelled ligand stays bound in the presence of the test substance.)

Series [2] addresses T2, AT2 receptor (Homo sapiens, UniProt P50052).
T2 construct: expressed in transfected cells; host or cells: HEK-293
T2 sequence (P50052 1-363): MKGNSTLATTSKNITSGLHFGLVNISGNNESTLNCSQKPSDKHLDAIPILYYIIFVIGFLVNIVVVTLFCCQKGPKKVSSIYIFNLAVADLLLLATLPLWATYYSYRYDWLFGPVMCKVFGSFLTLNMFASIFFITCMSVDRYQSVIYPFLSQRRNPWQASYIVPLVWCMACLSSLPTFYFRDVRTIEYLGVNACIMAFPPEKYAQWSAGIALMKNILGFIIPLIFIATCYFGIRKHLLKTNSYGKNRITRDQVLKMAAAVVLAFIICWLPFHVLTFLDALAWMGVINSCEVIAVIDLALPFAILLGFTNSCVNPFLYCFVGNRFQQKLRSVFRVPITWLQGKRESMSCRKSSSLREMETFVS
Briefly: HEK-293 cell AT2 receptor binding assay ([125I]-CGP42112 displacement, HEK293-hAT2R). Here is the method:
All of above methods were widely accepted and used to evaluate the binding activity of AT1 and AT2 receptors.
The lysis solution was mixed and centrifuged at 12,000 g for 10 min at 4°C. Details are shown in the Supplementary Material.
After HEK-293 cells were transfected with AT2 receptor, lysis buffer (150 mM NaCl, 0.1% Triton X-100, 50 mM Tris-HCl, 1 mM EDTA, protease inhibitor) was used to separate the cell membrane of HEK-293 cells[2],using 27-G Resuspend and mix the lysis solution, and centrifuge at 12,000 g for 10 minutes at 4 °C. The supernatant was collected and centrifuged for a further 60 minutes. The precipitated membrane extracts were buffered (150 mM NaCl, 10 mM MgCl2, 0.5 % SDS, 1 % Triton X-100, 50 mM Tris-Cl, 1 mM EDTA, protease inhibitor ) for resuspension. […]
mL containing 50 mM Tris-HCl (pH 7.4), 100 mM NaCl, 10 mM MgCl2, 1 mM […]
cpm, 0.03 nM), and variable concentrations of test substance. Samples were incubated at 25 ℃ for 2 h, and binding was terminated by filtration through Whatman GF/B glass-fiber filter sheets, which had been presoaked overnight with 0.3 % polyethylamine, using a Brandel cell harvester. The filterswere washed with 3×3 mL of Tris-HCl (pH 7.4) and transferred to tubes. The radioactivity was measured in a γ-counter. The characteristics of the Ang II binding AT1 receptor was determined by […]
Nonspecific binding was determined in the presence of 1 µM Ang II.The specific binding was determined by subtracting the nonspecific binding from the total bound The apparent dissociation constant Ki values were calculated from IC50 values using the Cheng-Prusoff equation. […]
as §1

The next series concerns the target AT2R. To be noted: Figure 5, tetrahydroisoquinoline antagonists, ref Smith et al., 2013, Rice et al., 2014, Smith and Muralidharan, 2015, 2016; cited from earlier work.

Entries after “also recorded” stand apart in the source; their conditions may differ.

As usually defined, the Ki is a dissociation constant, usually derived from enzyme kinetics or from competition with a known ligand.

T1 sequence (P25095 whole entry): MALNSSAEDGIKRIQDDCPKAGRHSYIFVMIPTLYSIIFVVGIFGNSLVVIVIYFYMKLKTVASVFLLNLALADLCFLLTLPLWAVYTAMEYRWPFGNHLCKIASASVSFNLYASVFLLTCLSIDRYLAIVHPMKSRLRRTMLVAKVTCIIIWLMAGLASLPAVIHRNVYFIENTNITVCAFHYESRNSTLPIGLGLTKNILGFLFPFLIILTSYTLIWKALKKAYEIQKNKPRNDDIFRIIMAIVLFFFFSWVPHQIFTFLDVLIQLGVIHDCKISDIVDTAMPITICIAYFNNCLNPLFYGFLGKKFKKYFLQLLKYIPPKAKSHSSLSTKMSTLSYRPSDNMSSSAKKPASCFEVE

On to `CC(C)Cc1ccc(S(=O)(=O)NC(=O)OC(C)C)c(-c2cccc(Cn3cncn3)c2)c1` [8d, Isopropyl((3’-((1H-1,2,4-triazol-1-yl)methyl)-5-isobutyl-[1,1′-biphenyl]-2-yl)sulfonyl)carbamate], for which, in the series on AT2 receptor [1], the “Function (AT2 receptor agonist / antagonist)” value is given as “antagonistic activity; also recorded: antagonist activity” and the “evidence of cell death” value is “evidence of cell death”. The Ki at AT1 receptor came out at 1786 ± 1.37 nM. For the same molecule, the inhibition constant (Ki) on AT2 receptor [2] was determined as 116 ± 1.18 nM.
The like results for `CCCCc1ccc(S(=O)(=O)NC(=O)OC(C)C)c(-c2cccc(Cn3cncn3)c2)c1` [8h, Isopropyl((3'-((1H-1,2,4-triazol-1-yl)methyl)-5-butyl-[1,1′-biphenyl]-2-yl)sulfonyl)carbamate] were, in that order, “antagonistic activity; also recorded: antagonist activity”, “evidence of cell death”, 1505 ± 1.11 nM and 82.9 ± 1.19 nM.
In the case of `CCCCOc1ccc(S(=O)(=O)NC(=O)CCCC)c(-c2cccc(Cn3cncn3)c2)c1` [8i, N-((3'-((1H-1,2,4-triazol-1-yl)methyl)-5-butoxy-[1,1′-biphenyl]-2-yl)sulfonyl)pentanamide], the “Function (AT2 receptor agonist / antagonist)” value with AT2 receptor [1] is listed as “antagonistic activity; also recorded: AT2R antagonist; also recorded: antagonist activity”. Further, the Ki on AT1 receptor turned out to be 1250 ± 1.12 nM; at AT2 receptor [2], 199.6 ± 1.17 nM.
The corresponding values for `CCCCOC(=O)NS(=O)(=O)c1ccc(OCCCC)cc1-c1cccc(Cn2cncn2)c1` [8j, Butyl((3'-((1H-1,2,4-triazol-1-yl)methyl)-5-butoxy-[1,1′-biphenyl]-2-yl)sulfonyl)carbamate] are “agonistic activity; also recorded: agonist activity; also recorded: AT2R agonist”, 889.3 ± 1.24 nM and 620.1 ± 1.27 nM.
Consider `CCCCOc1ccc(S(=O)(=O)NC(=O)OCC(C)C)c(-c2cccc(Cn3cncn3)c2)c1` [8k, Isobutyl((3'-((1H-1,2,4-triazol-1-yl)methyl)-5-butoxy-[1,1′-biphenyl]-2-yl)sulfonyl)carbamate], for which the “Function (AT2 receptor agonist / antagonist)” value in the series with AT2 receptor [1] is listed as “antagonistic activity; also recorded: AT2R antagonist; also recorded: antagonist activity”. In addition, the Ki on AT1 receptor was found to be 775 ± 1.08 nM; on AT2 receptor [2] it was 712.5 ± 1.17 nM.
The like results for `CCCCOc1ccc(S(=O)(=O)NC(=O)OC(C)C)c(-c2cccc(Cn3cncn3)c2)c1` [8l, Isopropyl((3'-((1H-1,2,4-triazol-1-yl)methyl)-5-butoxy-[1,1′-biphenyl]-2-yl)sulfonyl)carbamate] were, in that order, “antagonistic activity; also recorded: AT2R antagonist; also recorded: antagonist activity”, 2005 ± 1.16 nM and 56.6 ± 1.16 nM.
The corresponding values for `CCCCc1ccc(S(=O)(=O)NC(=O)OC(C)C)c(-c2cccc(Cn3cccn3)c2)c1` [9h, Isopropyl((3'-((1H-pyrazol-1-yl)methyl)-5-butyl-[1,1′-biphenyl]-2-yl)sulfonyl)carbamate] are “antagonistic activity; also recorded: Antagonist”, 1723 ± 1.07 nM and 138 ± 1.34 nM.
For the molecule `COc1ccc(Cn2cnc3c2C[C@@H](C(=O)O)N(C(=O)C(c2ccccc2)c2ccccc2)C3)cc1C` [EMA300], the Ki on AT2R is 28 nM.

Source of the values: publication PMC9458978, “Design, synthesis and biological evaluation of novel biphenylsulfonamide derivatives as selective AT2 receptor antagonists” (Frontiers in Chemistry, 2022).
